#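 In this assay, cells in 96-well plates receive the compound at five concentrations for 48 hours. Endpoints are linearly interpolated between the surrounding concentrations. GI50 marks 50% less growth. TGI: concentration producing complete growth inhibition.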
# Key:
# Assay in all cases: NCI tumour cell line growth inhibition, 48 h
# [1] = test system: EKVX NSCLC
# [2] = test system: SN12C renal
# [3] = test system: HCT-116 colon
# [4] = test system: 786-0 renal
# [5] = test system: OVCAR-4 ovarian
# [6] = test system: SK-OV-3 ovarian
# [7] = test system: IGROV1 ovarian
# [8] = test system: MCF7 breast
# [9] = test system: DU-145 prostate
# [10] = test system: SNB-19 CNS
# [11] = test system: UO-31 renal
# [12] = test system: ACHN renal
SMILES,TGI [1] [µM],TGI [2] [µM],TGI [3] [µM],TGI [4] [µM],TGI [5] [µM],TGI [6] [µM],TGI [7] [µM],TGI [8] [µM],TGI [9] [µM],TGI [10] [µM],TGI [11] [µM],TGI [12] [µM],GI50 [2] [µM],GI50 [3] [µM],GI50 [5] [µM],GI50 [7] [µM],GI50 [8] [µM],GI50 [9] [µM],GI50 [10] [µM]
COc1ccc2c(c1)/c(=C/C#N)c1c3ccccc3[n+](C)n21,16.5,47.4,12.5,> 70.1,22.9,> 100,31,> 55.9,8.59,51.5,36.9,32,–,–,–,–,–,–,–
COc1ccc(C2=NNC(=O)c3ccccc3N2c2nc(-c3cccs3)nc3cc(OC)c(OC)cc23)cc1,> 100,11.1,> 100,12.1,4.49,> 100,> 100,9,> 100,> 100,25,13.3,–,–,–,–,–,–,–
CCOC(=O)N1CCC2(CC1)C[C@@](C(C)=O)(c1ccccc1)C(C)O2 (stereo partly drawn),> 100,–,–,> 100,> 100,> 100,> 100,> 100,> 100,> 100,> 100,> 100,–,–,–,–,–,–,–
COc1cccc(CCNc2c(C#N)c3n(c4ccccc4[n+]3C)c3ncccc23)c1,36.5,32.7,5.3,3.35,10.8,42.1,–,5.13,11.3,18.8,12,36.1,–,–,–,–,–,–,–
C(=N\NC1=NCCN1)/c1ccc2ccccc2c1,50.8,35.4,28.9,26.3,54.3,34.1,24.6,32.3,> 100,–,19.9,33.7,–,–,–,–,–,–,–
COc1cc(S(=O)(=O)Nc2ccc(-c3csc(N4C(=O)CSC4c4ccccc4O)n3)cc2)ccc1Cl (stereo not drawn),85.5,> 100,> 100,> 100,> 100,> 100,> 100,> 100,> 100,> 100,> 100,> 100,–,–,–,–,–,–,–
CC1CN(CCO)CCN1c1ccccc1 (stereo not drawn),> 100,> 100,> 100,> 100,> 100,> 100,> 100,> 100,> 100,> 100,> 100,> 100,–,–,–,–,–,–,–
CCC(Nc1ncnc2nc[nH]c12)C(=O)O (stereo not drawn),> 100,> 100,> 100,> 100,> 100,> 100,> 100,> 100,> 100,> 100,> 100,> 100,–,–,–,–,–,–,–
CC(C)(C)OC(=O)N1N=CCC1c1ccccc1 (stereo not drawn),> 100,> 100,> 100,> 100,–,> 100,> 100,> 100,> 100,–,> 100,> 100,–,–,–,–,–,–,–
CN(C)CC1CCC/C(=C\c2ccc(OC(=O)/C=C/c3ccc(Cl)cc3)cc2)C1=O (stereo not drawn),15.2,12.8,11,3.05,35.9,50,3.35,4.95,25.5,13.9,12.8,5.73,–,–,–,–,–,–,–
CN(C)S(=O)(=O)c1nc(Cl)c2[nH]cnc2n1,> 100,> 100,> 100,> 100,> 100,> 100,> 100,> 100,> 100,> 100,> 100,> 100,–,–,–,–,–,–,–
Cc1nc2ccc(NC3OCC(O)C(O)C3O)cc2c(=O)n1-c1ccccc1 (stereo not drawn),> 100,> 100,> 100,> 100,> 100,–,> 100,> 100,> 100,> 100,> 100,> 100,–,–,–,–,–,–,–
O=c1[nH]cnc2c1cnn2Cc1cnnn1COCCO,> 100,> 100,> 100,> 100,> 100,> 100,> 100,> 100,> 100,> 100,> 100,> 100,–,–,–,–,–,–,–
O=C1Nc2ccc(Br)cc2/C1=N/N1C(=O)C(=O)N(C2CCCCC2)C1=S,23.1,16,10.8,18.4,22.6,21.9,–,15.6,23.1,69.1,4.79,16.7,–,–,–,–,–,–,–
CSc1nc(NCc2ccccc2)c2cnn(COCCO)c2n1,63.5,> 100,> 100,> 100,> 100,> 100,> 100,> 100,> 100,–,> 100,62.1,–,–,–,–,–,–,–
O=S(=O)(/N=C(\NO)Nc1ccc(Cl)cc1)c1cc2ccccc2s1,26,33,30.2,32.3,37.9,34.7,28.7,–,49.2,31.2,48.7,30.5,–,–,–,–,–,–,–
COC(=O)c1c2c(cc3c1CC1(Cc4ccccc4C1)C3)CCC2,98.7,95.8,84.4,> 100,> 100,> 100,> 100,23.4,> 100,–,> 100,86.8,–,–,–,–,–,–,–
Cc1cc(C)c2c(n1)S(=O)(=O)N(CCCN1CCN(c3cccc(Cl)c3)CC1)/C(=C(\O)c1ccc(Br)cc1)C2=O,57,53.2,52,38.2,55.8,> 100,> 100,> 100,> 100,98.4,48.9,> 100,–,–,–,–,–,–,–
O=C(NC1C/C(=N/O)c2c(Br)sc(Br)c21)C(F)(F)F (stereo not drawn),> 100,56.1,30.9,40.4,43.7,> 100,> 100,> 100,> 100,> 100,98.5,> 100,–,–,–,–,–,–,–

SMILES,TGI [1] [µM],TGI [2] [µM],TGI [3] [µM],TGI [4] [µM],TGI [5] [µM],TGI [6] [µM],TGI [7] [µM],TGI [8] [µM],TGI [9] [µM],TGI [10] [µM],TGI [11] [µM],TGI [12] [µM],GI50 [2] [µM],GI50 [3] [µM],GI50 [5] [µM],GI50 [7] [µM],GI50 [8] [µM],GI50 [9] [µM],GI50 [10] [µM]
O=C(NC1=C(Cl)C(=O)c2ccccc2C1=O)C(=O)C(C(=O)c1ccc2ccccc2c1)C1OC(=O)c2ccccc21 (stereo not drawn),24.7,16.3,10.5,20.6,19.8,44,27,16.8,23.9,19,29.4,21.1,–,–,–,–,–,–,–
CSc1ncc2c(n1)-c1ccccc1OC2,> 100,> 100,> 100,> 100,> 100,> 100,> 100,> 100,> 100,> 100,> 100,> 100,–,–,–,–,–,–,–
COc1ccc([I+]c2ccc(OC)cc2)cc1,> 100,> 100,> 100,> 100,> 100,> 100,> 100,> 100,> 100,> 100,> 100,> 100,29.3,2.83,3.33,15.7,7.26,60.4,20.9
N#CC1=C(N)N(/N=C/c2ccco2)C(c2ccco2)C1(C#N)C#N (stereo not drawn),47.3,70,25.3,33.1,32.5,83.8,30,43.2,32.1,39.2,34.4,30.2,–,–,–,–,–,–,–
NC(=S)N1N=C2c3ccccc3CCC[C@H]2[C@@H]1c1ccccc1,70.2,19.7,12.7,21.8,23.2,2.77,25,25.3,9.27,25.2,15.8,30.6,–,–,–,–,–,–,–
CCNC(=S)NNC(=O)c1ccccc1Nc1ccccc1C(=O)NNC(=S)NCC,> 100,> 100,> 100,> 100,> 100,> 100,> 100,> 100,> 100,> 100,> 100,> 100,–,–,–,–,–,–,–
CNC(=O)CNC(=O)N(C[C@@H]1CCCN1C(=O)[C@H](CC(C)C)NC(=O)OC(C)(C)C)C(C)C,> 100,> 100,> 100,> 100,> 100,> 100,> 100,> 100,> 100,> 100,> 100,> 100,–,–,–,–,–,–,–
CCCCCCCCCCCCOC1C(COCCN2CCCCC2)OC2OC(C)(C)OC21 (stereo not drawn),–,4.72,3.07,3.11,–,15.9,3.26,3.23,21.6,8.07,3.22,4.69,–,–,–,–,–,–,–
COc1cc(/C=C/C(=N\NC(N)=S)c2sc(NNC(C)=O)nc2C)ccc1O,> 100,> 100,> 100,> 100,> 100,> 100,> 100,> 100,> 100,> 100,> 100,> 100,–,–,–,–,–,–,–
C=CCOC(=O)Cn1ccc(=O)[nH]c1=O,> 100,> 100,> 100,> 100,–,> 100,> 100,> 100,> 100,> 100,> 100,> 100,–,–,–,–,–,–,–
COc1ccc(/C=C/C(=O)c2ccc(Br)cc2)cc1,> 100,> 100,> 100,> 100,> 100,> 100,> 100,> 100,> 100,> 100,> 100,> 100,–,–,–,–,–,–,–
CCOC(=O)c1cc(C)nc2c1c(=O)n(-c1ccccc1)c(=O)n2CCCCN1CCN(c2ncccn2)CC1,> 100,> 100,> 100,> 100,–,> 100,> 100,> 100,> 100,–,> 100,> 100,–,–,–,–,–,–,–
C=C(C)CCC1C=[N+]([O-])OC(C)(C)C1(C)C (stereo not drawn),> 100,> 100,> 100,> 100,–,> 100,> 100,> 100,> 100,–,> 100,> 100,–,–,–,–,–,–,–
CC(=O)[C@@]1(c2ccccc2)CC2(CCN(C)CC2)O[C@H]1C,> 100,> 100,> 100,> 100,> 100,> 100,> 100,–,> 100,> 100,> 100,> 100,–,–,–,–,–,–,–
COc1ccc(-c2cc(-c3ccc(Nc4ccnc5cc(Cl)ccc45)cc3)[nH]c(=O)c2C#N)cc1,> 100,–,> 100,> 100,> 100,> 100,> 100,> 100,> 100,> 100,> 100,> 100,–,–,–,–,–,–,–
Cn1cc2c3ccccc3nc-2c2ccccc21,–,4.89,3.2,11.1,5.25,9.3,–,10,5.76,10.6,2.92,5.81,–,–,–,–,–,–,–
COc1ccc(-c2nnc3n(C)c4ccccc4n3c2=O)cc1,> 100,> 100,> 100,> 100,> 100,–,> 100,> 100,> 100,> 100,> 100,> 100,–,–,–,–,–,–,–
O=S(=O)(c1ccccc1)c1ccc(-c2nc(-c3ccc4c(c3)Sc3ccccc3S4)cs2)cc1,> 100,> 100,> 100,45.1,> 100,41.9,–,> 100,> 100,> 100,> 100,> 100,–,–,–,–,–,–,–
C(=C/c1nnnn1-c1ccccc1)/Nc1ccccc1,> 100,> 100,95.7,> 100,–,> 100,> 100,64.8,> 100,96.8,65.9,> 100,–,–,–,–,–,–,–

# — PubChem BioAssay (NCI)
